Source: ChEMBL document CHEMBL5042492, “Noncovalent CDK12/13 dual inhibitors-based PROTACs degrade CDK12-Cyclin K complex and induce synthetic lethality with PARP inhibitor” (Eur J Med Chem, 2022)
Calls of active or inactive are those of the source. No cut-off for these calls is given here.

What was measured:
[1] = target: T1, Protein cereblon/Cyclin-K/Cyclin-dependent kinase 12 (Homo sapiens, UniProt O75909+Q9NYV4+Q96SW2); test: Protac activity at human CRBN/CDK12/CycK in human Bel-7402 cells assessed as degradation of CDK12 at 3 uM measured after 24 hrs by Western blotting assay; format: cell-based
Target sequence in this assay (O75909 whole entry, looked up): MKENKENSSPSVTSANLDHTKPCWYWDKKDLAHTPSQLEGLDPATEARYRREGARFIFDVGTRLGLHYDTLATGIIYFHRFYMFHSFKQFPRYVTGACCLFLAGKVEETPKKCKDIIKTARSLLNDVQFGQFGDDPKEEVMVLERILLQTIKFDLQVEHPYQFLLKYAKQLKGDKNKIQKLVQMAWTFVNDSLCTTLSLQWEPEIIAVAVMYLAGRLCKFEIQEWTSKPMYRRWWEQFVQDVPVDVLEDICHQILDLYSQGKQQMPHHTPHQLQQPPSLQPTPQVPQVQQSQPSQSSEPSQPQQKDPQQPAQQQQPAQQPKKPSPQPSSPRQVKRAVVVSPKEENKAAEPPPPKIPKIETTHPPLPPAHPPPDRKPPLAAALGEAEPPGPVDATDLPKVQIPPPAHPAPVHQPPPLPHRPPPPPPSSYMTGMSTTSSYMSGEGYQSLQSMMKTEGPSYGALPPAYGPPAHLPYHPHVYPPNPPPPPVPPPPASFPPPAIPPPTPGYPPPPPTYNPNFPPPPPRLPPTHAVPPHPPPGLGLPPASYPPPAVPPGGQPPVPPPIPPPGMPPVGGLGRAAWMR
Target sequence in this assay (Q96SW2 whole entry, looked up): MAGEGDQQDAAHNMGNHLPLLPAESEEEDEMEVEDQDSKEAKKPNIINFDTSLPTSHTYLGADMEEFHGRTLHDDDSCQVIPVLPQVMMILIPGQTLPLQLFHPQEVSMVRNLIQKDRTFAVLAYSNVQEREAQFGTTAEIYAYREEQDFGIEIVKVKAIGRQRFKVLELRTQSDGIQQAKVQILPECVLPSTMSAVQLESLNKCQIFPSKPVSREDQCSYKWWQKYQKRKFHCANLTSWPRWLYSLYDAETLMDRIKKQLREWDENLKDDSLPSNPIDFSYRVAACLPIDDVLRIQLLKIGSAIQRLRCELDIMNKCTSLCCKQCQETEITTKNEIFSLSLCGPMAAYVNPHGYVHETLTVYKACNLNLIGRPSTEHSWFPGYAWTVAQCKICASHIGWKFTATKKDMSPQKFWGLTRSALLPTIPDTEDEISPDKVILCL
Target sequence in this assay (Q9NYV4 whole entry, looked up): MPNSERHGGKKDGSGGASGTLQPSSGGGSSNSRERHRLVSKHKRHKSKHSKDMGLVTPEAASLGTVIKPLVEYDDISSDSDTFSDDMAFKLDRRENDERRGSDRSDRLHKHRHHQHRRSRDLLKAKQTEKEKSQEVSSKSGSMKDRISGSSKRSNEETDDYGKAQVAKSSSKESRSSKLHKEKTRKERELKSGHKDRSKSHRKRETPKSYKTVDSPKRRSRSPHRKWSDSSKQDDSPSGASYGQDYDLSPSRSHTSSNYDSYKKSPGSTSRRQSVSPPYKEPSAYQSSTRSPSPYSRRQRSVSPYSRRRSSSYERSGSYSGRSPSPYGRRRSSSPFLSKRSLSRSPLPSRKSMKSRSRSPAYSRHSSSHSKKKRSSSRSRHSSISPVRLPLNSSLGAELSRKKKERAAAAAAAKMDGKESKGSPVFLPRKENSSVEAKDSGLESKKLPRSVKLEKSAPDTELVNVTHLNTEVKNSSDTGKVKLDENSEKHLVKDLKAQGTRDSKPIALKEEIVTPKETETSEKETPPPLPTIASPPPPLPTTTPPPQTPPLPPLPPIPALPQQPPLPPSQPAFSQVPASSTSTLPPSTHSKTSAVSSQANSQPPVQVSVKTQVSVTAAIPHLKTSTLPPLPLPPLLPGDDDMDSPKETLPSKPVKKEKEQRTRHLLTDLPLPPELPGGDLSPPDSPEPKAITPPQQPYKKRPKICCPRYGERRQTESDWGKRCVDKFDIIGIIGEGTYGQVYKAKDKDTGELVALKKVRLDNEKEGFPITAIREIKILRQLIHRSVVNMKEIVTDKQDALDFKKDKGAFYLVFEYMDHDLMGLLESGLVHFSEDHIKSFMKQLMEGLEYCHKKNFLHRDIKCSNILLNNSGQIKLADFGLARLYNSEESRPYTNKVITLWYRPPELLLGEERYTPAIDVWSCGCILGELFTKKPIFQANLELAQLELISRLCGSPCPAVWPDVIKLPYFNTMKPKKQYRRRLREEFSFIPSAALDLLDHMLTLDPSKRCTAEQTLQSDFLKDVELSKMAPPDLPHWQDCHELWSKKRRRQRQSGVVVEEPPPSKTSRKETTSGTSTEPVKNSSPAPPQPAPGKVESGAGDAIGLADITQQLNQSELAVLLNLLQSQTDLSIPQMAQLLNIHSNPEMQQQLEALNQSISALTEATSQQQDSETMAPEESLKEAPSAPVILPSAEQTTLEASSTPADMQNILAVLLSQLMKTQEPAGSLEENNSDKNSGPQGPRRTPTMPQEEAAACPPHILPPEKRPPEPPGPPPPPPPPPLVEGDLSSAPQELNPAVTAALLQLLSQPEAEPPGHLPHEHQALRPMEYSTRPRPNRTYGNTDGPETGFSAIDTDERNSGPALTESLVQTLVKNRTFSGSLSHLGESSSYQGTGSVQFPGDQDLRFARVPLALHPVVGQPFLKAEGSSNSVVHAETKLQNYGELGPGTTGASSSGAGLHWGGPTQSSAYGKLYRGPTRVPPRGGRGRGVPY

[2] = target: T1, Protein cereblon/Cyclin-K/Cyclin-dependent kinase 12; test: Protac activity at human CRBN/CDK12/CycK in human Bel-7402 cells assessed as degradation of CDK12 measured after 24 hrs by Western blotting assay; format: cell-based
[3] = target: T1, Protein cereblon/Cyclin-K/Cyclin-dependent kinase 12; test: Protac activity at human CRBN/CDK12/CycK in human MDA-MB-231 cells assessed as degradation of CycK measured after 24 hrs by Western blotting assay; format: cell-based
[4] = target: T1, Protein cereblon/Cyclin-K/Cyclin-dependent kinase 12; test: Protac activity at human CRBN/CDK12/CycK in human MDA-MB-231 cells assessed as degradation of CDK7 up to 30 uM measured after 24 hrs by Western blotting assay; format: cell-based; conditions: dose microM <=30, time 24.0 hrs
Target sequence in this assay (O75909 whole entry, looked up): as the sequence (O75909 whole entry, looked up) above
Target sequence in this assay (Q96SW2 whole entry, looked up): as the sequence (Q96SW2 whole entry, looked up) above
Target sequence in this assay (Q9NYV4 whole entry, looked up): as the sequence (Q9NYV4 whole entry, looked up) above

[5] = target: T1, Protein cereblon/Cyclin-K/Cyclin-dependent kinase 12; test: Protac activity at human CRBN/CDK12/CycK in human Bel-7402 cells assessed as RNAP2 CTD Ser2 phosphorylation level at 0.1 to 30 uM measured after 24 hrs by Western blotting assay; format: cell-based; conditions: dose 0.1-30 µM
Target sequence in this assay (O75909 whole entry, looked up): as the sequence (O75909 whole entry, looked up) above
Target sequence in this assay (Q96SW2 whole entry, looked up): as the sequence (Q96SW2 whole entry, looked up) above
Target sequence in this assay (Q9NYV4 whole entry, looked up): as the sequence (Q9NYV4 whole entry, looked up) above

[6] = target: T1, Protein cereblon/Cyclin-K/Cyclin-dependent kinase 12; test: Protac activity at human CRBN/CDK12/CycK in human MDA-MB-231 cells assessed as degradation of CDK9 up to 30 uM measured after 24 hrs by Western blotting assay; format: cell-based; conditions: dose microM <=30, time 24.0 hrs
Target sequence in this assay (O75909 whole entry, looked up): as the sequence (O75909 whole entry, looked up) above
Target sequence in this assay (Q96SW2 whole entry, looked up): as the sequence (Q96SW2 whole entry, looked up) above
Target sequence in this assay (Q9NYV4 whole entry, looked up): as the sequence (Q9NYV4 whole entry, looked up) above

[7] = target: T1, Protein cereblon/Cyclin-K/Cyclin-dependent kinase 12; test: Protac activity at human CRBN/CDK12/CycK in human MDA-MB-231 cells assessed as RNAP2 CTD Ser2 phosphorylation level at 0.1 to 30 uM measured after 24 hrs by Western blotting assay; format: cell-based; conditions: dose 0.1-30 µM
Target sequence in this assay (O75909 whole entry, looked up): as the sequence (O75909 whole entry, looked up) above
Target sequence in this assay (Q96SW2 whole entry, looked up): as the sequence (Q96SW2 whole entry, looked up) above
Target sequence in this assay (Q9NYV4 whole entry, looked up): as the sequence (Q9NYV4 whole entry, looked up) above

[8] = target: T1, Protein cereblon/Cyclin-K/Cyclin-dependent kinase 12; test: Protac activity at human CRBN/CDK12/CycK in human Bel-7402 (CRBN/KO) cells assessed as degradation of CDK12 measured after 24 hrs by Western blotting assay; format: cell-based
Target sequence in this assay (O75909 whole entry, looked up): as the sequence (O75909 whole entry, looked up) above
Target sequence in this assay (Q96SW2 whole entry, looked up): as the sequence (Q96SW2 whole entry, looked up) above
Target sequence in this assay (Q9NYV4 whole entry, looked up): as the sequence (Q9NYV4 whole entry, looked up) above

[9] = target: T1, Protein cereblon/Cyclin-K/Cyclin-dependent kinase 12; test: Protac activity at human CRBN/CDK12/CycK in human MDA-MB-231 cells assessed as downregulation of ATM measured after 6 hrs by RT-qPCR method; format: cell-based
[10] = target: T1, Protein cereblon/Cyclin-K/Cyclin-dependent kinase 12; test: Protac activity at human CRBN/CDK12/CycK in human Bel-7402 cells assessed as downregulation of ATR measured after 6 hrs by RT-qPCR method; format: cell-based
[11] = target: T1, Protein cereblon/Cyclin-K/Cyclin-dependent kinase 12; test: Protac activity at human CRBN/CDK12/CycK in human MDA-MB-231 cells assessed as downregulation of ATR measured after 6 hrs by RT-qPCR method; format: cell-based
MDA-MB-231 [12] = test: Synergistic antiproliferative activity against human MDA-MB-231 cells in presence of 3 uM of Olaparib at 1 uM measured after 10 days by SRB staining based clone formation assay relative to control; format: functional; conditions: MDA-MB-231, 240 h, time 10 day
MDA-MB-231 [13] = test: Synergistic antiproliferative activity against human MDA-MB-231 cells in presence of 1 uM of Olaparib at 3 uM measured after 10 days by SRB staining based clone formation assay relative to control; format: functional; conditions: MDA-MB-231, 240 h, time 10 day
MDA-MB-231 [14] = test: Synergistic antiproliferative activity against human MDA-MB-231 cells in presence of 3 uM of Olaparib at 3 uM measured after 10 days by SRB staining based clone formation assay relative to control; format: functional; conditions: MDA-MB-231, 240 h, time 10 day
[15] = target: T1, Protein cereblon/Cyclin-K/Cyclin-dependent kinase 12; test: Protac activity at human CRBN/CDK12/CycK in human Bel-7402 cells assessed as downregulation of Mcl-1 level upto 30 uM measured after 24 hrs by Western blotting assay; format: cell-based; conditions: dose microM <=30, time 24.0 hrs
MDA-MB-231 [16] = test: Synergistic antiproliferative activity against human MDA-MB-231 cells in presence of 1 uM of Olaparib at 1 uM for 10 days by Chou-Talalay method; format: functional; conditions: time 10 day
MDA-MB-231 [17] = test: Synergistic antiproliferative activity against human MDA-MB-231 cells in presence of 3 uM of Olaparib at 1 uM measured after 10 days by Chou-Talalay method; format: functional; conditions: time 10 day
MDA-MB-231 [18] = test: Synergistic antiproliferative activity against human MDA-MB-231 cells in presence of 1 uM of Olaparib at 3 uM measured after 10 days by Chou-Talalay method; format: functional; conditions: time 10 day
MDA-MB-231 [19] = test: Synergistic antiproliferative activity against human MDA-MB-231 cells in presence of 3 uM of Olaparib at 3 uM measured after 10 days by Chou-Talalay method; format: functional; conditions: time 10 day
[20] = target: T2, Protein cereblon/Cyclin-dependent kinase 13 (Homo sapiens) (UniProt Q14004+Q96SW2); test: Protac activity at human CRBN/CDK13 in human Bel-7402 cells assessed as degradation of CDK13 at 0.1 to 30 uM measured after 24 hrs by Western blotting assay; format: cell-based; conditions: dose 0.1-30 µM
T2 sequence (Q14004 whole entry, looked up): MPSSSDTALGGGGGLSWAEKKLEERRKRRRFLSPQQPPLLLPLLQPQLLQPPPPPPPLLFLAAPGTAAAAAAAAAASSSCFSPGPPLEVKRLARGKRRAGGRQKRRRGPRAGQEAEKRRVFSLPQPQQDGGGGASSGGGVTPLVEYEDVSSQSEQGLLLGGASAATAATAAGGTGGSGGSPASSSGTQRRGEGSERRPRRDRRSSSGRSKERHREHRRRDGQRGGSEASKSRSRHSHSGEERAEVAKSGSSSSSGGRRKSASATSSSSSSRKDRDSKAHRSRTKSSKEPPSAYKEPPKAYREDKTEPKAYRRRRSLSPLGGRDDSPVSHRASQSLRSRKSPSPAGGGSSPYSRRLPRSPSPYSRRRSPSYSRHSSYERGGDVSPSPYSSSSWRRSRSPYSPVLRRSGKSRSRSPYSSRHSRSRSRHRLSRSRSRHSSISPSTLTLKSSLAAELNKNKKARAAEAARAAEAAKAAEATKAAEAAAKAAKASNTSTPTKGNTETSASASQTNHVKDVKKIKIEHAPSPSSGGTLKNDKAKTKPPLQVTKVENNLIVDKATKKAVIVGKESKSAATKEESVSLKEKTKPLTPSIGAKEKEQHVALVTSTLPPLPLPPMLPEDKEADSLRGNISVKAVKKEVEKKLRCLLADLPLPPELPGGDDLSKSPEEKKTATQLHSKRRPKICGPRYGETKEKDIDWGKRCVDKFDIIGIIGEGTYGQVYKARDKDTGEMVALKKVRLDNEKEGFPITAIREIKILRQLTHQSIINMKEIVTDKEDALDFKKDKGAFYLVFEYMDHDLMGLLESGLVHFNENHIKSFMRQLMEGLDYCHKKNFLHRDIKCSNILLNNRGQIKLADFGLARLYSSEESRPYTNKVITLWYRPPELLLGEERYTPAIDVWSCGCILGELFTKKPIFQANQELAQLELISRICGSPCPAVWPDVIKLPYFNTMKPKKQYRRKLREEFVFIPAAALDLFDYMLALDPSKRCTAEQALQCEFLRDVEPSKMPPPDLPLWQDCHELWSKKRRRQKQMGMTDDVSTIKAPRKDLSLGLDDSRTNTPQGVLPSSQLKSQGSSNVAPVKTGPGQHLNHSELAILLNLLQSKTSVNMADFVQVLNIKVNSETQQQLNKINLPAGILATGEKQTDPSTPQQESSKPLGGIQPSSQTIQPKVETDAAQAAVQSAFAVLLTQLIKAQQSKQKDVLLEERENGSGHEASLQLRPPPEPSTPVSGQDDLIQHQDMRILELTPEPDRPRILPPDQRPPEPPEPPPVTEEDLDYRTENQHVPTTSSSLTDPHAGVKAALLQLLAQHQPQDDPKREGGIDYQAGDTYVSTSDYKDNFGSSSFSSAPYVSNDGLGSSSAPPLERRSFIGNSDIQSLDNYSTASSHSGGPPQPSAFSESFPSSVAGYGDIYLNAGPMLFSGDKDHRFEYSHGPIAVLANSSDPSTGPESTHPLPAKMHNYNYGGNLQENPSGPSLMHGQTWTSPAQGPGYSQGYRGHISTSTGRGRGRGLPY
T2 sequence (Q96SW2 whole entry, looked up): as the sequence (Q96SW2 whole entry, looked up) above

[21] = target: T2, Protein cereblon/Cyclin-dependent kinase 13 (Homo sapiens); test: Protac activity at human CRBN/CDK13 in human MDA-MB-231 cells assessed as degradation of CDK13 at 0.1 to 30 uM measured after 24 hrs by Western blotting assay; format: cell-based; conditions: dose 0.1-30 µM
[22] = target: T1, Protein cereblon/Cyclin-K/Cyclin-dependent kinase 12; test: Protac activity at human CRBN/CDK12/CycK in human MDA-MB-231 cells assessed as degradation of Cyclin H up to 30 uM measured after 24 hrs by Western blotting assay; format: cell-based; conditions: dose microM <=30, time 24.0 hrs
[23] = target: T1, Protein cereblon/Cyclin-K/Cyclin-dependent kinase 12; test: Protac activity at human CRBN/CDK12/CycK in human Bel-7402 cells assessed as degradation of CK1alpha upto 30 uM measured after 24 hrs by Western blotting assay; format: cell-based; conditions: dose microM <=30, time 24.0 hrs
[24] = target: T1, Protein cereblon/Cyclin-K/Cyclin-dependent kinase 12; test: Protac activity at human CRBN/CDK12/CycK in human Bel-7402 cells assessed as degradation of GSPT1 upto 30 uM measured after 24 hrs by Western blotting assay; format: cell-based; conditions: dose microM <=30, time 24.0 hrs
[25] = target: T1, Protein cereblon/Cyclin-K/Cyclin-dependent kinase 12; test: Protac activity at human CRBN/CDK12/CycK in human MDA-MB-231 cells assessed as degradation of GSPT1 up to 30 uM measured after 24 hrs by Western blotting assay; format: cell-based; conditions: dose microM <=30, time 24.0 hrs
[26] = target: T1, Protein cereblon/Cyclin-K/Cyclin-dependent kinase 12; test: Protac activity at human CRBN/CDK12/CycK in human Bel-7402 cells assessed as degradation of CDK12 at 1 to 3 uM for 24 hrs in presence of MG132 by Western blotting assay; format: cell-based; conditions: dose 1-3 µM
[27] = target: T1, Protein cereblon/Cyclin-K/Cyclin-dependent kinase 12; test: Protac activity at human CRBN/CDK12/CycK in human MDA-MB-231 cells assessed as degradation of CDK12 at 1 to 3 uM for 24 hrs in presence of MG132 by Western blotting assay; format: cell-based; conditions: dose 1-3 µM
[28] = target: T1, Protein cereblon/Cyclin-K/Cyclin-dependent kinase 12; test: Protac activity at human CRBN/CDK12/CycK in human MDA-MB-231 cells assessed as degradation of CycK a 1 to 3 uM for 24 hrs in presence of MG132 by Western blotting assay; format: cell-based; conditions: dose 1-3 µM
[29] = target: T1, Protein cereblon/Cyclin-K/Cyclin-dependent kinase 12; test: Protac activity at human CRBN/CDK12/CycK in human Bel-7402 cells assessed as CDK12 mRNA expression measured after 6 hrs by RT-qPCR method; format: cell-based
[30] = target: T1, Protein cereblon/Cyclin-K/Cyclin-dependent kinase 12; test: Protac activity at human CRBN/CDK12/CycK in human Bel-7402 cells assessed as CycK mRNA expression measured after 6 hrs by RT-qPCR method; format: cell-based
MDA-MB-231 [31] = test: Antiproliferative activity against human MDA-MB-231 cells at 1 uM for 10 days by SRB staining based clone formation assay relative to control; format: functional; conditions: MDA-MB-231, 240 h, time 10 day
MDA-MB-231 [32] = test: Antiproliferative activity against human MDA-MB-231 cells at 3 uM for 10 days by SRB staining based clone formation assay relative to control; format: functional; conditions: MDA-MB-231, 240 h, time 10 day

CC(C)n1cnc2c(NCc3nc4cc(F)c(NCCCCCCCCNC(=O)COc5cccc6c5C(=O)N(C5CCC(=O)NC5=O)C6=O)cc4[nH]3)nc(N3CCOCC3)nc21 (configuration not stated)
Activity [1]: Active | DC50 [2]: 416 nM | DC50 [3]: 412 nM | Activity [4]: inactive | Activity [5]: Active | Activity [6]: inactive | Activity [7]: Active | Activity [8]: inactive | Activity [9]: Active | Activity [10]: Active | Activity [11]: Active | inhibition at 1 µM (MDA-MB-231 [12]): 99.6% | inhibition at 3 µM (MDA-MB-231 [13]): 99.2% | inhibition at 3 µM (MDA-MB-231 [14]): 99.8% | Activity [15]: inactive | CI (MDA-MB-231 [16]): 0.65 | CI (MDA-MB-231 [17]): 0.75 | CI (MDA-MB-231 [18]): 0.29 | CI (MDA-MB-231 [19]): 0.62 | Activity [20]: Active | Activity [21]: inactive | Activity [22]: inactive | Activity [23]: inactive | Activity [24]: inactive | Activity [25]: inactive | Activity [26]: inactive | Activity [27]: inactive | Activity [28]: inactive | Activity [29]: inactive | Activity [30]: inactive | inhibition at 1 µM (MDA-MB-231 [31]): 1.05% | inhibition at 3 µM (MDA-MB-231 [32]): 6.47%
